One assay deals with T1, MOF-KAT8 (Homo sapiens, UniProt Q9H7Z6).
T1 sequence (Q9H7Z6 with tags, fused parts or gaps): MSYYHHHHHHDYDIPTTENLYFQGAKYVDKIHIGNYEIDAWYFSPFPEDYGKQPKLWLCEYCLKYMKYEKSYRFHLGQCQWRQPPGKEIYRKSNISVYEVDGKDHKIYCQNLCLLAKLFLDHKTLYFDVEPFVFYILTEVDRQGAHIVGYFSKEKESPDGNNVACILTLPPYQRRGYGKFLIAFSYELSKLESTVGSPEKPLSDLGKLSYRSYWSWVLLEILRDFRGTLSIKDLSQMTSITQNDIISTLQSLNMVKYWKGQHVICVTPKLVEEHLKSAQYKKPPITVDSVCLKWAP
Description: biochemical.

In a further assay the target is MOZ-KAT6A (Homo sapiens, UniProt Q92794, A567V). As to the kind of experiment: Acetyltransferase biochemical assay (AlphaScreen), KAT6A.
The target in another assay is HBO-KAT7 (Homo sapiens, UniProt O95251). Description: Acetyltransferase biochemical assay (AlphaScreen), KAT7.
For another assay, the target named is TIP60-KAT5 (Homo sapiens, UniProt Q92993). Description: Acetyltransferase biochemical assay (AlphaScreen), KAT5.
Sequence of TIP60-KAT5 (Q92993 with tags, fused parts or gaps isoform Q92993-2): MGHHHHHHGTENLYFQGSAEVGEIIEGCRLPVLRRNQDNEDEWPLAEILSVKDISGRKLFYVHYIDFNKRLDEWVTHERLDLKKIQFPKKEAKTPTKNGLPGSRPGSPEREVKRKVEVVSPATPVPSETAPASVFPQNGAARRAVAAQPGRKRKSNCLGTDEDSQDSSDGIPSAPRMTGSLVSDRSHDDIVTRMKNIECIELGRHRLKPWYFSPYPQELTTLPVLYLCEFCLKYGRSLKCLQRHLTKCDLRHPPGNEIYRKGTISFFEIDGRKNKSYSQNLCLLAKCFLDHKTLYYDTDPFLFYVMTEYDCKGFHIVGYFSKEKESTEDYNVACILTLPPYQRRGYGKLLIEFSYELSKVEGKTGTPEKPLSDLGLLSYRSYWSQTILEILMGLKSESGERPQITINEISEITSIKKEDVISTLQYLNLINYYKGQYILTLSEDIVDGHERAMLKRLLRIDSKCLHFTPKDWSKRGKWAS

Sequence of MOZ-KAT6A (Q92794 with tags, fused parts or gaps A567V): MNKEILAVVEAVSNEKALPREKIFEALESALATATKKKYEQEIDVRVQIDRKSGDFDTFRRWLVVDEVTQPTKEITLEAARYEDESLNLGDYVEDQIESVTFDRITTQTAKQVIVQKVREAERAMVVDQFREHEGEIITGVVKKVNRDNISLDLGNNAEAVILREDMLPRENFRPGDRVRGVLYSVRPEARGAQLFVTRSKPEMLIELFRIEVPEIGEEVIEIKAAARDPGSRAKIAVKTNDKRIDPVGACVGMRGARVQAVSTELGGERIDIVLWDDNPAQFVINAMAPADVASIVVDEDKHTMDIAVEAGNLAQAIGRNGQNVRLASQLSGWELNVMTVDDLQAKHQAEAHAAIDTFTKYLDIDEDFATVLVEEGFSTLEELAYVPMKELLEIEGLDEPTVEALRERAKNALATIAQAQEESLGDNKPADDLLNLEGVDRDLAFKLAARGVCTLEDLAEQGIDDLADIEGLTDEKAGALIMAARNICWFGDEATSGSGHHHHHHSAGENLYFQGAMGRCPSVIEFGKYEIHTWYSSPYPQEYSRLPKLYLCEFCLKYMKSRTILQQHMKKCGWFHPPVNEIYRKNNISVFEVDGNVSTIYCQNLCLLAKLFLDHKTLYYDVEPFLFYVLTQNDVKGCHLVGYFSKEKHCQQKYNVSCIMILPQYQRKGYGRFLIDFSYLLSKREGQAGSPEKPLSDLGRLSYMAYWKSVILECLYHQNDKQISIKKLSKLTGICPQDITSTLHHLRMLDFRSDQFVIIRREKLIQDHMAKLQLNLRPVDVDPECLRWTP
Sequence of HBO-KAT7 (O95251 with tags, fused parts or gaps): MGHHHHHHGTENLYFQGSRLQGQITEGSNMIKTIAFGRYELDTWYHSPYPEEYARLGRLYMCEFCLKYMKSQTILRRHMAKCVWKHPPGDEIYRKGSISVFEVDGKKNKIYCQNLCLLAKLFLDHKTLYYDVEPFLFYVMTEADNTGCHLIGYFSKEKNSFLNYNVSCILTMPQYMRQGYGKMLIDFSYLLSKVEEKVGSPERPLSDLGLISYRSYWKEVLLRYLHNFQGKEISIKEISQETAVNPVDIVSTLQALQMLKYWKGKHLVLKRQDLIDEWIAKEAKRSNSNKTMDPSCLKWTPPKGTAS

Take `O=S(=O)(Nc1noc2cccc(Cl)c12)c1ccccc1-c1cnco1` [Example 11, N-(4-chlorobenzo [d]isoxazol-3-yl)-2-(oxazol-5-yl)benzenesulfonamide]: the IC50 at MOF-KAT8 is 35.6 µM; against MOZ-KAT6A it was over 125 µM; against HBO-KAT7, 60.5 µM; on TIP60-KAT5, over 125 µM.

With `Cc1ncc(-c2ccc(C)c(S(=O)(=O)Nc3noc4cccc(Cl)c34)c2)o1` [Example 18, N-(4-chlorobenzo [d]isoxazol-3-yl)-2-methyl-5-(2-methyloxazol-5-yl)benzenesulfonamide], the IC50 on MOF-KAT8 was 63.5 µM; on MOZ-KAT6A, 74.9 µM; on HBO-KAT7, 34.1 µM; on TIP60-KAT5 it was 118 µM.

Turning to `Cc1ccc(-c2ccno2)cc1S(=O)(=O)Nc1noc2cccc(Cl)c12` [Example 19, N-(4-chlorobenzo [d]isoxazol-3-yl)-5-(isoxazol-5-yl)-2-methylbenzenesulfonamide], the IC50 at MOF-KAT8 came to 41 µM; against MOZ-KAT6A, 32.2 µM; against HBO-KAT7, 36.1 µM; against TIP60-KAT5 it was 65 µM.

Regarding `Cc1ccc(-n2cccn2)cc1S(=O)(=O)Nc1noc2cccc(Cl)c12` [Example 20, N-(4-chlorobenzo [d]isoxazol-3-yl)-2-methyl-5-(1H-pyrazol-1-yl)benzenesulfonamide], the IC50 worked out at 61.4 µM on MOF-KAT8, 29.4 µM against MOZ-KAT6A, 41.3 µM at HBO-KAT7 and 81.5 µM at TIP60-KAT5.

Turning to `CS(=O)(=O)c1ccc(S(=O)(=O)Nc2noc3cccc(Cl)c23)cc1` [Example 21, N-(4-chlorobenzo [d]isoxazol-3-yl)-4-(methylsulfonyl) benzenesulfonamide], the IC50 against MOF-KAT8 was 39.7 µM; against MOZ-KAT6A, 24.8 µM; against HBO-KAT7, 25.5 µM; at TIP60-KAT5, over 125 µM.

For the compound `O=S(=O)(Nc1noc2cccc(Cl)c12)c1ccc(Cl)cc1` [Example 26, 4-chloro-N-(4-chlorobenzo[d]isoxazol-3-yl)benzenesulfonamide], the IC50 at MOF-KAT8 is 29.5 µM; on MOZ-KAT6A, 60.1 µM; against HBO-KAT7 it was 34.5 µM; at TIP60-KAT5, over 125 µM.

As for `COc1cccc2onc(NS(=O)(=O)c3cccc4ccoc34)c12` [Example 81, N-(4-methoxybenzo[d]isoxazol-3-yl)benzofuran-7-sulfonamide], the IC50 against MOF-KAT8 turned out to be 9.43 µM; against MOZ-KAT6A, 43.6 µM; on HBO-KAT7, 6.73 µM; against TIP60-KAT5 it was 31.5 µM.

Consider `COc1cccc(OC)c1S(=O)(=O)Nc1noc2cc(C(C)OC)cc(OC)c12` (stereo not shown) [Example 93, 2,6-Dimethoxy-N-(4-methoxy-6-(1-methoxyethyl)benzo[d]isoxazol-3-yl)benzenesulfonamide], for which the IC50 on MOF-KAT8 amounted to 96.5 µM; against MOZ-KAT6A, 0.181 µM; on HBO-KAT7, 2.8 µM; against TIP60-KAT5, 53.1 µM.

For the compound `CCc1ccc(OC)c(S(=O)(=O)Nc2noc3cccc(OC)c23)c1OC` [Example 94, 3-Ethyl-2,6-dimethoxy-N-(4-methoxybenzo[d]isoxazol-3-yl)benzenesulfonamide], the IC50 against MOF-KAT8 worked out at 60.9 µM; on MOZ-KAT6A, 6.11 µM; against HBO-KAT7 it was 16.1 µM; on TIP60-KAT5, 124 µM.

For `COc1cccc(OC)c1S(=O)(=O)Nc1noc2ccc(OC(F)(F)F)cc12` [Example 100, 2,6-Dimethoxy-N-(5-(trifluoromethoxy)benzo [d]isoxazol-3-yl)benzenesulfonamide], the IC50 came out at 62.6 µM against MOF-KAT8, 0.972 µM at MOZ-KAT6A, 2.24 µM on HBO-KAT7 and 51.7 µM at TIP60-KAT5.

As to `CCc1cc(S(=O)(=O)Nc2noc3cccc(Cl)c23)c(=O)n(C)c1` [Example 107, N-(4-Chlorobenzo[d]isoxazol-3-yl)-5-ethyl-1-methyl-2-oxo-1,2-dihydropyridine-3-sulfonamide], the IC50 amounted to 42.1 µM against MOF-KAT8, 14.9 µM on MOZ-KAT6A, 11.7 µM at HBO-KAT7 and 74.1 µM on TIP60-KAT5.

Consider `CCOc1ccc2onc(NS(=O)(=O)c3cc(CC)ccc3OC)c2c1` [Example 109], for which the IC50 on MOF-KAT8 came to 9.12 µM; at MOZ-KAT6A, 1.21 µM; against HBO-KAT7 it was 4.07 µM; on TIP60-KAT5, 69.3 µM.

Consider `CCc1ccc(OC)c(S(=O)(=O)Nc2noc3ccc(OC)cc23)c1` [Example 111, 5-Ethyl-2-methoxy-N-(5-methoxybenzo[d]isoxazol-3-yl)benzenesulfonamide], for which the 50% inhibitory concentration (IC50) at MOF-KAT8 came out at 3.22 µM; against MOZ-KAT6A, 0.842 µM; at HBO-KAT7, 4.54 µM; at TIP60-KAT5 it was 26.6 µM.

For `CCOc1cccc2c(NS(=O)(=O)c3cc(CC)ccc3OC)noc12` [Example 132], the IC50 at MOF-KAT8 is 15.3 µM; against MOZ-KAT6A, 7.45 µM; against HBO-KAT7, 11.8 µM; against TIP60-KAT5, 53 µM.

`O=S(=O)(Nc1noc2cccc(Cl)c12)c1ccccc1` [Example 151, N-(4-chlorobenzo[d]isoxazol-3-yl)benzenesulfonamide]: the IC50 against MOF-KAT8 was 34.7 µM; on MOZ-KAT6A, 27.9 µM; at HBO-KAT7, 25.6 µM; against TIP60-KAT5 it was over 125 µM.

For `CCc1ccc(OC)c(S(=O)(=O)Nc2noc3cccc(Cl)c23)c1` [Example 154], the IC50 was 2.57 µM against MOF-KAT8, 0.516 µM against MOZ-KAT6A, 3.13 µM against HBO-KAT7 and 25.3 µM on TIP60-KAT5.

On to `COCc1cc(OC)c2c(NS(=O)(=O)c3c(OC)cccc3OC)noc2c1Cl` [Example 161], for which the IC50 was 118 µM against MOF-KAT8, 1.87 µM on MOZ-KAT6A, 2.51 µM on HBO-KAT7 and over 125 µM against TIP60-KAT5.

For `COCc1cc2onc(NS(=O)(=O)c3ccc(OC)nc3)c2cc1C` [Example 164, 6-methoxy-N-(6-(methoxymethyl)-5-methylbenzo[d]isoxazol-3-yl)pyridine-3-sulfonamide], the IC50 is over 125 µM against MOF-KAT8, 27.2 µM on MOZ-KAT6A, 61.6 µM against HBO-KAT7 and over 125 µM against TIP60-KAT5.

For the compound `COCc1cc2onc(NS(=O)(=O)c3cccnc3)c2cc1C` [Example 165, N-(6-(methoxymethyl)-5-methylbenzo[d]isoxazol-3-yl)pyridine-3-sulfonamide], the IC50 against MOF-KAT8 was over 125 µM; at MOZ-KAT6A it was 99.9 µM; against HBO-KAT7, 30.7 µM; on TIP60-KAT5, over 125 µM.

Consider `COc1cccc(OC)c1S(=O)(=O)Nc1noc2cc(COCC(F)(F)F)cc(OC)c12` [Example 240, 2,6-Dimethoxy-N-(4-methoxy-6-((2,2,2-trifluoroethoxy)methyl)benzo[d]isoxazol-3-yl)benzenesulfonamide], for which the IC50 on MOZ-KAT6A was 1.83 µM; against HBO-KAT7, 10.2 µM; against TIP60-KAT5, 122 µM.

Consider `COc1cccc(OC)c1S(=O)(=O)Nc1noc2cc(-c3ccccn3)c(C)cc12` [Example 241, 2,6-Dimethoxy-N-(5-methyl-6-(pyridin-2-yl)benzo[d]isoxazol-3-yl)benzenesulfonamide], for which the IC50 amounted to 0.157 µM on MOZ-KAT6A, 2.51 µM against HBO-KAT7 and 26.3 µM against TIP60-KAT5.

Consider `COc1cccc(OC)c1S(=O)(=O)Nc1noc2cc(-c3cccc(C#N)c3)cc(OC)c12` [Example 243], for which the IC50 amounted to 0.654 µM on MOZ-KAT6A, 0.72 µM against HBO-KAT7 and 18.1 µM on TIP60-KAT5.

With `COc1cccc(OC)c1S(=O)(=O)Nc1noc2cc(C)cc(OC)c12` [Example 244, 2,6-Dimethoxy-N-(4-methoxy-6-methylbenzo[d]isoxazol-3-yl)benzenesulfonamide], the IC50 against MOZ-KAT6A was 2.13 µM; against HBO-KAT7 it was 1.11 µM; against TIP60-KAT5 it was 30.2 µM.

For the compound `COc1cccc(OC)c1S(=O)(=O)Nc1noc2cc(-c3ccncc3)cc(OC)c12` [Example 245, 2,6-Dimethoxy-N-(4-methoxy-6-(pyridin-4-yl)benzo[d]isoxazol-3-yl)benzenesulfonamide], the IC50 on MOZ-KAT6A amounted to 3.9 µM; at HBO-KAT7 it was 2.76 µM; at TIP60-KAT5 it was 57.6 µM.

For `COc1cccc(OC)c1S(=O)(=O)Nc1noc2cc(-c3cccnc3)cc(OC)c12` [Example 246, 2,6-Dimethoxy-N-(4-methoxy-6-(pyridin-3-yl)benzo[d]isoxazol-3-yl)benzenesulfonamide], the IC50 on MOZ-KAT6A was determined as 0.676 µM; against HBO-KAT7 it was 0.478 µM; against TIP60-KAT5, 27.1 µM.

Turning to `COc1ccc(-c2cc(OC)c3c(NS(=O)(=O)c4c(OC)cccc4OC)noc3c2)cn1` [Example 247, 2,6-Dimethoxy-N-(4-methoxy-6-(6-methoxypyridin-3-yl)benzo[d]isoxazol-3-yl)benzenesulfonamide], the IC50 against MOZ-KAT6A was found to be 3.48 µM; against HBO-KAT7, 5.9 µM; against TIP60-KAT5, 96.6 µM.

Turning to `COc1cc(C)cc(-c2cc(OC)c3c(NS(=O)(=O)c4c(OC)cccc4OC)noc3c2)c1` [Example 248, 2,6-Dimethoxy-N-(4-methoxy-6-(3-methoxy-5-methylphenyl)benzo[d]isoxazol-3-yl)benzenesulfonamide], the IC50 was 0.139 µM against MOZ-KAT6A, 0.375 µM on HBO-KAT7 and 9.33 µM at TIP60-KAT5.

As for `COc1cc(-c2cc(OC)c3c(NS(=O)(=O)c4c(OC)cccc4OC)noc3c2)ccn1` [Example 249, 2,6-Dimethoxy-N-(4-methoxy-6-(2-methoxypyridin-4-yl)benzo[d]isoxazol-3-yl)benzenesulfonamide], the IC50 on MOZ-KAT6A was found to be 1.27 µM; at HBO-KAT7, 0.889 µM; at TIP60-KAT5, 69.2 µM.

Regarding `COc1cc(C#N)cc(-c2cc(OC)c3c(NS(=O)(=O)c4c(OC)cccc4OC)noc3c2)c1` [Example 251], the concentration for half-maximal inhibition (IC50) at MOZ-KAT6A was found to be 1.16 µM; on HBO-KAT7 it was 0.473 µM; on TIP60-KAT5, 47 µM.

Source of the values: patent publication US12365655B2, “Compounds” (CTXT PTY LTD, priority 2018, dated 2025).
